Experimental data published in patent US6426368B2, “Method for preventing and treating alcoholism” (Warner-Lambert Company, priority 1997, dated 2002).

Tests used:
Assay type in all cases: in vivo, rat
[1] = tested on: colonic inflammatory effect of TNBS; assay: Colonic inflammatory parameters after TNBS in rats; conditions: gabapentin 100-500 mg/kg sc, CI-1008 30-200 mg/kg sc; Day 7 after TNBS
Description: (§1) Pain threshold (pressure of distension inducing the first abdominal contraction) after distal colonic distension was determined at Day 7 in two groups of awake rats: control animals and TNBS-treated animals. […] Inflammatory parameters (colon weight, area of hyperemia and necrosis and colonic myeloperoxidase content) were measured in the proximal colon at Day 7 after TNBS treatment.
Gabapentin (100, 300, and 500 mg/kg sc) and CI-1008 (30, 60, 100, and 200 mg/kg sc) were administered 30 minutes before colonic distension and measurement of the inflammatory parameters.

[2] = tested on: TNBS-induced colonic allodynia; assay: TNBS-induced chronic colonic allodynia in rats, colonic distension threshold; conditions: for Colonic Threshold: TNBS rats
Description: GABA analogs were evaluated in rats suffering from chronic visceral allodynia induced by trinitrobenzene sulfonic acid (TNBS). […] In humans, digestive disorders are often associated with visceral pain. In these pathologies, the visceral pain threshold is decreased, indicating a visceral hypersensitivity. Consequently, the following study was designed to evaluate the effect of injection of TNBS into the colon on visceral pain threshold in an experimental model of colonic distension.
(§2) Male Sprague-Dawley rats weighing 340 to 400 g were used in the study. The animals were housed three per cage in a regulated environment (20±1° C., 50±5% humidity, with light 8:00 AM to 8:00 PM). Under anethesia (ketamine 80 mg/kg i.p.; acepromazin 12 mg/kg i.p.), TNBS (50 mg/kg), or saline (1.5 mL/kg) was injected into the proximal colon (1 cm from the cecum). After the surgery, animals were individually housed in the regulated environment.
(§3) A balloon catheter (5-6 cm length) was inserted through the anus into the colon and kept in position (tip of balloon 5 cm from the anus) by taping the catheter to the base of the tail. The balloon was progressively inflated by step of 5 mm Hg, from 0 to 75 mm Hg, each step of inflation lasting 30 seconds. Each cycle of colonic distension was controlled by a standard barostat. The threshold corresponds to the pressure which produced the first abdominal contraction, at which time the cycle of distension was discontinued. To determine the colonic threshold, four cycles of distension were performed on the same animal.
In a third series, a group of eight rats treated with TNBS received a subcutaneous (sc) injection of gabapentin or CI-1008 30 minutes prior to initiation of the colonic distension cycle.
All test compounds were dissolved in saline except TNBS. TNBS was dissolved in EtOH 30% (w/v). Subcutaneous injection of vehicle was given in a volume of […].
Statistical significance between each group was determined using a one-way ANOVA followed by Student's unpaired t-test. Differences were considered statistically significant at p<0.05.
as §1

colonic pain threshold = assay: Colonic pain threshold in normal rats (colonic distension); conditions: control animals
Description: as §2, §3

[3] = tested on: intracolonic formalin-induced pain; assay: Formalin-induced inflammatory colonic pain in rats; conditions: gabapentin 100, 300, 500 mg/kg sc; CI-1008 100, 200 mg/kg sc
Description: Administration of formalin into the wall of the rat colon causes acute inflammation and visceral pain. The aim of this study was to evaluate the antinociceptive activity of gabapentin and CI-1008 in visceral pain induced by colonic intrapariental injection of formalin.
Adult female Sprague-Dawley rats weighing 240 to 260 g were used in the study. The animals were housed three per cage in a regulated environment (20±1° C., 50±5% humidity, with light 8:00 AM to 8:00 PM) prior to use in the test.
Each test animal was placed in a transparent plastic cage (27×43×28 cm) with a layer of wood shavings on the floor. Drinking water was available. […] The injection site and the zone of diffusion of Evans Blue were recorded by image analysis software. […]
As listed in increasing order of pain intensity, these behaviors were: (i) abdominal licking and nibbling (L), (ii) body stretching, i.e., backward extension of the hind limbs (B), (iii) contraction of the flanks, sometimes evolving to a stretching attitude (C), and (iv) whole body contraction, the rat standing with its back curved, occasionally further graded according to the duration of the given episode: W1 for less than 30 seconds, W2 between 30 seconds and 1 minute, and W3 for more than 1 minute. Behaviors were recorded for each animal throughout the 2-hour test on individual charts. […]

[4] = tested on: cyclooxygenase product prostaglandin E2 (PGE2); assay: PGE2 content of gastric mucosa biopsies (ELISA) after indomethacin (Example 3); conditions: any dose tested (1-200 mg/kg oral)
Description: Gabapentin or pregabalin (CI-1008) were dissolved in water and administered orally at the following doses: 1, 10, 100, and 200 mg/kg in a volume of 1 mL. Control animals were dosed with an equal volume of vehicle (1 mL of water). Sixty minutes later, all the animals received 1 mL of a solution of indomethacin dissolved in 5% aqueous NaHCO3 (80 mg/kg). Control animals received 1 mL of 5% aqueous NaHCO3 orally. Experimental groups were as follows:
Gastric damage caused by indomethacin correlates with inhibition of the cyclooxygenase product prostaglandin E2 (PGE2). Animals were sacrificed by decapitation 4 hours post-indomethacin administration. The stomach was removed and opened along the greater curvature and its image digitized and stored on an optical disk using a 486-based PC computer equipped with CUE3 system imaging analysis software (Olympus Corp., Marietta, Ga., USA). Two 6-mm biopsies were taken from a constant region of the gastric mucosa located in each side of the glandular portion of the stomach, and their PGE2 content was measured using a commercially available ELISA kit (Assay Designs Inc., Ann Arbor, Mich., USA). The presence of gastric damage was determined using the retrieved electronic image, and the extent of damage was measured using the CUE3 imaging software. Data are expressed as a percent of gastric area damaged and the PGE2 content (pg/mL).

[5] = tested on: lipopolysaccharide-induced delayed rectal allodynia; assay: LPS-colonic hypersensitivity assay (LPS-induced delayed rectal allodynia); conditions: 30 mg/kg 30 minutes prior to rectal distension; 12 hours after LPS 1 mg/kg IP; volume 0.4 mL; LPS alone 9.7±1.0, before LPS 3.7±1.0
From the text: The GABA analogs also have been evaluated for their ability to control and treat gastrointestinal disorders characterized as IBD and IBS. The assay utilized to evaluate the GABA analogs measures the effects of compound on lipopolysaccharide-induced delayed rectal allodynia in rats. Intraperitoneal (IP) injections of the endotoxin lipopolysaccharide (LPS) are known to induce long-lasting hyperalgesia in somatic pain models. The following assay LPS-colonic hypersensitivity assay was designed to evaluate the effect of IP injections of LPS on pain visceral threshold in an experimental model of rectal distension.
Male Wistar rats weighing 250 to 350 g were surgically prepared for electromyography, according to a standard technique. […]
Electromyographic recording began 5 days after surgery. The electrical activity of abdominal striated muscles was recorded with an electroencephalograph machine (Mini VIII, Alvar, Paris, France) using a short-time constant (0.03 sec) to remove low-frequency signals (<3 Hz) and a paper speed of 3.6 cm/minute. […]
(§4) Statistical analysis of the number of abdominal contractions occurring during each 5-minute period during RD was performed by one-way ANOVA followed by Student's paired t-test. Values were expressed as the mean±SEM, and differences were considered significant for p<0.05.

[6] = tested on: rectal distension-induced abdominal contractions; assay: Abdominal response induced by rectal distension in rats (basal)
Description: Male Wistar rats weighing 250 to 350 g were surgically prepared for electromyography, according to a standard technique. Rats were anesthetized by i.p. injection of acepromazine and ketamine (Imalgene 1000, Rhöne-Mérieux, Lyon, France) at doses of 0.6 and 120 mg/kg, respectively. […] Electrodes were exteriorized on the back of the neck and protected by a glass tube attached to the skin. Animals were individually housed in polypropylene cages and kept in a temperature-controlled room (21° C.). They were allowed free access to water and food (UAR pellets, Epinay, France).
Electromyographic recording began 5 days after surgery. The electrical activity of abdominal striated muscles was recorded with an electroencephalograph machine (Mini VIII, Alvar, Paris, France) using a short-time constant (0.03 sec) to remove low-frequency signals (<3 Hz) and a paper speed of 3.6 cm/minute.
Rats were placed in plastic tunnels (6 cm diameter; 25 cm length) where they could not move, escape or turn around, in order to prevent damage to the balloon. They are accustomized to this procedure for 3 or 4 days before rectal distension (RD) in order to minimize stress reaction during experiments. […] The balloon used for distension was an arterial embolectomy catheter (Fogarty, Edwards Laboratories, Inc., Santa Ana, USA). Rectal distension (RD) was performed by insertion of the balloon (2-mm diameter; 2-cm long) in the rectum, at 1 cm of the anus, the catheter being fixed at the tail. It was inflated progressively by steps of 0.4 mL, from 0 to 1.6 mL, each step of inflation lasting 5 minutes. To detect possible leakage, the volume of water introduced in the balloon was checked by complete removal with a syringe at the end of the distension period. […]
as §4

| Compound | colonic inflammatory effect of TNBS (colon weight, hyperemia, necrosis, myeloperoxidase) [1] | Colonic Threshold ([2]; 30 mg/kg sc 30 min before distension, TNBS 17.81, Sham 33.44, Control 43.39) [mm Hg] | Colonic Threshold ([2]; 60 mg/kg sc, TNBS 17.81, Control 43.39) [mm Hg] | allodynia induced by TNBS ([2]; 100 mg/kg sc) | inhibition of TNBS-induced colonic allodynia / decrease in pain threshold (dose relation) ([2]; gabapentin 100, 300, 500 mg/kg sc, CI-1008 30, 60, 100, 200 mg/kg sc, 30 minutes before colonic distension) | colonic pain threshold in normal conditions (colonic pain threshold; 200 mg/kg sc) | pain score induced by intracolonic formalin [3] | modification of indomethacin inhibition of PGE2 [4] | number of abdominal contractions [5] | number of cramps on rectal distension ([6]; 10 mg/kg injected 120 minutes before rectal distension, all distension volumes) | number of cramps on rectal distension ([6]; 30 mg/kg injected 120 minutes before rectal distension, all distension volumes) | number of cramps on rectal distension ([6]; 30 mg/kg, distension volumes of 0.4 and 0.8 mL) | TNBS-induced decrease in pain threshold after colonic distension ([2]; 0.1 mg/kg sc) | colonic pain threshold in normal conditions (colonic pain threshold; 0.3 mg/kg sc) |
| --- | --- | --- | --- | --- | --- | --- | --- | --- | --- | --- | --- | --- | --- | --- |
| CC(C)C[C@H](CN)CC(=O)O [CI-1008, (S)-3-(aminomethyl)-5-methylhexanoic acid] | neither gabapentin nor CI-1008 inhibited the colonic inflammatory effect of TNBS | 21.72 | 25.47 | completely suppressed | dose-related inhibition | neither gabapentin (500 mg/kg sc) nor CI-1008 (200 mg/kg sc) modified the colonic pain threshold | significantly and dose-dependently decreased the pain score | Neither gabapentin nor CI-1008, at any dose tested, were able to significantly modify this effect | 1.8±0.9 | had a similar effect at all distension volumes | had a similar effect at all distension volumes | reduced the number of cramps |  |  |
| CN1CC[C@]23c4c5ccc(O)c4O[C@H]2[C@@H](O)C=C[C@H]3[C@H]1C5 [Morphine] |  |  |  |  |  |  |  |  |  |  |  |  | completely suppressed | significantly increased the colonic pain threshold |
